{"source": "patent US6063383A", "about": "“Pharmaceutical suppository composites for fever and influenza and method of producing the composites” (priority 1999, dated 2000)", "origin": "cited, not measured here", "key": {"[1]": {"test_system": "twisting reaction of small rats caused by acetic acid", "details": "into the stomach"}, "[2]": {"test_system": "blood capillary permeability", "details": "into the stomach"}, "nephrosis": {"test_system": "nephrosis", "details": "intra-abdominal"}, "[3]": {"test_system": "heart separated from frogs, wister rats, or rabbits"}, "[4]": {"test_system": "heart failure; left ventricles"}, "[5]": {"test_system": "hemorrhagic heart failure"}, "[6]": {"test_system": "post-synaptic GABA receptors"}, "[7]": {"test_system": "essential hypertension and critical hypertension", "details": "in vivo"}, "[8]": {"test_system": "TXA; prostate glandis (PGI)"}, "blood platelets": {"test_system": "blood platelets", "details": "ADP, arachidonic acids and collagen"}, "pain": {"test_system": "pain", "details": "oral intake or injection"}, "sleeping time": {"test_system": "sleeping time", "details": "sub-threshold pento-barbital sodium"}, "small rats [9]": {"test_system": "small rats"}, "blood cholesterol": {"test_system": "blood cholesterol", "details": "in vivo"}, "small rats [10]": {"test_system": "small rats", "details": "rat, in vivo"}, "[11]": {"test_system": "liver injury caused by carbon tetrachloride"}, "small rats [12]": {"test_system": "small rats", "remark": "listed apart in the source"}, "granuloma": {"test_system": "granuloma", "details": "for anti-granulomatous action: cotton granulomatous method; for anti-osmosis: granulationimplantation"}, "[13]": {"test_system": "smooth muscles of the gall bladder and the dilator in the opening of the bile duct"}, "[14]": {"details": "infusing to the stomach of small rats"}}, "note": "“Also recorded” adds a separate entry of the source. Where two headings read alike, the source gives them in different places."}
{"compound": "COc1cc(CC2(O)C(=O)OCC2Cc2ccc(OC)c(OC)c2)ccc1O", "note": "(single isomer, unassigned) [trachelogenin]", "values": [{"measurement": "IC50", "setting": "colon", "result": 1100, "unit": "nM"}, {"measurement": "antagonistic action on calcium", "setting": "colon", "result": "noticeable antagonistic action on calcium"}, {"measurement": "effect on contraction", "setting": "colon; high concentration of potassium", "result": "inhibitory effect on the contraction"}, {"measurement": "pA2", "setting": "colon; rat, colon", "result": 6.60}, {"measurement": "ratio to verapamil", "setting": "colon; versus verapamil", "result": "one-sixth"}]}
{"compound": "CCCCCC(O)CC", "note": "(stereo not drawn) [3-octanol]", "values": [{"measurement": "inflammation action", "setting": "inflammation", "result": "have inflammation action"}]}
{"compound": "CC1CCC(C(C)C)C(O)C1", "note": "(stereo not drawn) [Methol]", "values": [{"measurement": "inhibitory rate on twisting reaction", "setting": "[1]", "result": 41.3, "unit": "%"}]}
{"compound": "CC(C)=C1CC[C@@H](C)CC1=O", "note": "[Pulegone]", "values": [{"measurement": "inhibitory rate on abdominal osmosis", "setting": "[2]", "result": 39.8, "unit": "%"}]}
{"compound": "O=C1C[C@@H]2OCC=C3CN4CC[C@]56c7ccccc7N1[C@H]5[C@H]2[C@H]3C[C@H]46", "note": "[Strychnine, reference compound]", "values": [{"measurement": "antagonism of pyrexia", "setting": "hypothalamus; rat, in vivo", "result": "can antagonize pyrexia"}]}
{"compound": "COc1cc(C[C@H]2C(=O)OC[C@@H]2Cc2ccc(OC)c(OC)c2)ccc1O", "note": "[arctigenin]", "values": [{"measurement": "excretion of proteins in urine", "setting": "nephrosis", "result": "can inhibit the increase in the excretion of proteins in urine"}, {"measurement": "serum biochemical index", "setting": "nephrosis", "result": "improve the serum biochemical index"}]}
{"compound": "C=CC1=C(C)/C(=C/c2[nH]c(Cc3[nH]c(/C=C4\\NC(=O)C(C)=C4C=C)c(C)c3CCC(=O)O)c(CCC(=O)O)c2C)NC1=O", "note": "[bilirubin]", "values": [{"measurement": "contracting effect on aortic arteries", "setting": "aortic arteries", "result": "weaker contracting effect"}, {"measurement": "cardiac tonic effect", "setting": "[3]", "result": "cardiac tonic effect"}]}
{"compound": "C[C@H](CCC(=O)O)[C@H]1CC[C@H]2[C@@H]3[C@H](O)C[C@@H]4C[C@H](O)CC[C@]4(C)[C@H]3C[C@H](O)[C@]12C", "note": "[calcium cholic acid]", "values": [{"measurement": "blood pressure lowering effect", "setting": "hypertension; oral, 100 mg/kg", "result": "significant and long-lasting blood pressure lowering effect"}, {"measurement": "duration of hypotensive effect", "setting": "hypertension; oral, 100 mg/kg", "result": "one"}]}
{"compound": "C[C@H](CCC(=O)O)[C@H]1CC[C@H]2[C@@H]3[C@H](O)C[C@@H]4C[C@H](O)CC[C@]4(C)[C@H]3C[C@H](O)[C@]12C", "note": "[cholic acid]", "values": [{"measurement": "contracting effect on aortic arteries", "setting": "aortic arteries", "result": "contracting effect"}, {"measurement": "cardiac tonic effect", "setting": "[3]", "result": "cardiac tonic effect"}]}
{"compound": "COc1ccc([C@@H]2Sc3ccccc3N(CCN(C)C)C(=O)[C@@H]2OC(C)=O)cc1", "note": "[diltiazem, reference compound]", "values": [{"measurement": "output of left ventricles", "setting": "[4]; 1 mg/kg", "result": "the output of the left ventricles reduces"}]}
{"compound": "CC(C)NCC(O)COc1cccc2ccccc12", "note": "(stereo not drawn) [propranolol, reference compound]", "values": [{"measurement": "output of left ventricles", "setting": "[4]; 1 mg/kg", "result": "the output of the left ventricles reduces"}]}
{"compound": "NCCS(=O)(=O)O", "note": "[taurine]", "values": [{"measurement": "effect on convulsion", "setting": "convulsion; pento-tetra-amine, cepharathin, carbon monoxide, aluminum oxide, 4-amino pyride, penicillin, oxygen, low calcium, sound, L-uric acid", "result": "inhibitory effect"}, {"measurement": "latency period of convulsion", "setting": "convulsion; strychnine", "result": "can significantly extend the latency period"}, {"measurement": "output of left ventricles", "setting": "[4]; after 1 mg/kg propranolol or diltiazem", "result": "can improve the output of left ventricles"}, {"measurement": "life expectancy", "setting": "[4]; long-term oral", "result": "extends the life expectancy of rabbits"}, {"measurement": "prevention of heart failure", "setting": "[4]; long-term oral, incomplete opening and closing of aortic valves", "result": "can prevent the accelerated hemorrhagic heart failure"}, {"measurement": "normal rate and final diastolic pressure of left ventricles", "setting": "[4]; rabbit, in vivo", "result": "does not affect the normal rate of rabbits and the final diastolic pressure of left ventricles"}, {"measurement": "output and systolic pressure of the left ventricles", "setting": "[4]; rabbit, in vivo", "result": "significantly increase the output and systolic pressure of the left ventricles"}, {"measurement": "heart-failure mortality rate", "setting": "[4]; treatment group", "result": "significantly reduces with a lower heart pulse"}, {"measurement": "treatment effect", "setting": "[5]; 6 g daily, four weeks", "result": "noticeable treatment effect"}, {"measurement": "action and metabolism of cardiac tonic", "setting": "[5]; catecholamines and digitalis", "result": "does not affect the action and metabolism of cardiac tonic"}, {"measurement": "affinity for post-synaptic GABA receptors", "setting": "[6]", "result": "no significant affinity"}, {"measurement": "replacement of GABA effects", "setting": "[6]; central nervous system", "result": "cannot replace the inhibitory effect and modulating effect of GABA"}, {"measurement": "effects in treating hypertension", "setting": "[7]", "result": "satisfactory"}, {"measurement": "effect on cell membrane", "setting": "myocardia", "result": "stabilizing effect on the cell membrane"}, {"measurement": "formation of glutathione", "setting": "myocardia", "result": "increase the formation of glutathione"}, {"measurement": "myocardial blood deficiency and damage", "setting": "myocardia", "result": "can significantly inhibit myocardial blood deficiency and damage"}, {"measurement": "myocardial injury by hyperpolarization of calcium", "setting": "myocardia", "result": "antagonize the myocardial injury"}, {"measurement": "oxygen free radicals", "setting": "myocardia", "result": "reduce the formation of oxygen free radicals; also recorded: increases the excretion of oxygen free radicals"}, {"measurement": "effect on PGE1 and PGE2 mechanism", "setting": "heat-induced pyrogenesis; E1 (PGE1) and E2 (PGE2)", "result": "so such effect occurs"}, {"measurement": "inhibition of pyrogenesis", "setting": "heat-induced pyrogenesis; endotoxin and white blood cells, injection into the cerebral ventricles", "result": "can inhibit the heat-induced pyrogenesis of endotoxin and white blood cells"}, {"measurement": "formation of PGI", "setting": "TXA", "result": "no noticeable effect"}, {"measurement": "formation of TXA by arachidonic acids", "setting": "[8]", "result": "no effect on the formation of TXA by arachidonic acids"}, {"measurement": "formation of TXA by collagen", "setting": "[8]", "result": "can inhibit the formation of TXA by collagen"}, {"measurement": "hypotensive effect", "setting": "hypertension; essential or deoxy-cortisone acetate-induced hypertension", "result": "hypotensive effect"}, {"measurement": "effect on Ca^2+ in the myocardia", "setting": "cardiac arrhythmias", "result": "biphasic moderation"}, {"measurement": "prevention of cardiac arrhythmias", "setting": "cardiac arrhythmias", "result": "can prevent cardiac arrhythmias"}, {"measurement": "anti-arrhythmic effect", "setting": "cardiac arrhythmias; used together with quinidina, small rats", "result": "better anti-arrhythmic effect"}, {"measurement": "agglomeration of blood platelets", "setting": "blood platelets", "result": "dosage-dependence relationship; also recorded: inhibitory action on the agglomeration of blood platelets"}, {"measurement": "pain relief", "setting": "pain", "result": "does not produce noticeable pain relief"}, {"measurement": "hypnotizing action", "setting": "sleeping time", "result": "increase the hypnotizing action"}, {"measurement": "formation of thrombi", "setting": "formation of thrombi", "result": "noticeable inhibition on the formation of thrombi"}, {"measurement": "body temperature", "setting": "hypothalamus; injection into the hypothalamus", "result": "can increase the body temperature"}, {"measurement": "body temperature", "setting": "hypothalamus; large dosage", "result": "can reduce the body temperature"}, {"measurement": "LD50", "setting": "small rats [9]; intravenous", "result": 0.33, "unit": "g/kg"}, {"measurement": "electrical activities", "setting": "cerebral cortical nerves", "result": "can inhibit both the spontaneous and induced electrical activities and produce hyperpolarization"}, {"measurement": "inhibitory effect on the spinal cord and brain stem with strychnine", "setting": "cerebral cortical nerves; strychnine", "result": "antagonized by strychnine"}, {"measurement": "atherosclerosis", "setting": "blood cholesterol", "result": "prevent atherosclerosis"}, {"measurement": "blood cholesterol", "setting": "blood cholesterol", "result": "reduce blood cholesterol"}, {"measurement": "high-density lipoproteins", "setting": "blood cholesterol", "result": "increase high-density lipoproteins"}, {"measurement": "pathological changes", "setting": "small rats [10]", "result": "no pathological changes are found"}, {"measurement": "protection for liver injury", "setting": "[11]; in vivo", "result": "protection for the liver injury"}, {"measurement": "rise of ALT", "setting": "[11]; in vivo", "result": "inhibits the rise of ALT"}, {"measurement": "repairing of liver cells", "setting": "[11]; pathological sectioning", "result": "can promote the repairing of liver cells and the prevention of lipohepatitis"}]}
{"compound": "C=C1CCC2CC1C2(C)C", "note": "(stereo not drawn) [β-pipene]", "values": [{"measurement": "inflammation action", "setting": "inflammation", "result": "have inflammation action"}]}
{"compound": "bupleurum saponin-a", "values": [{"measurement": "coughing-relieving action, dose relation", "setting": "coughing; intra-abdominal, 100~200 mg/kg, wister rats, 200 mg/kg", "result": "most noticeable coughing-relieving action; also recorded: related to its dosage"}, {"measurement": "action of relieving coughing", "setting": "coughing; rat, in vivo", "result": "stronger action of relieving coughing"}, {"measurement": "inhibition on over-activity", "setting": "small rats [12]; mounting experiments, conditional aversion", "result": "noticeable inhibition on the over-activity"}, {"measurement": "tranquilizing effect", "setting": "small rats [12]; rat, in vivo", "result": "significant tranquilizing effect"}, {"measurement": "anti-granulomatous action", "setting": "granuloma", "result": "anti-granulomatous action"}, {"measurement": "anti-osmosis", "setting": "granuloma", "result": "anti-osmosis"}]}
{"compound": "bupleurum saponin-d", "values": [{"measurement": "anti-granulomatous action", "setting": "granuloma", "result": "anti-granulomatous action"}, {"measurement": "anti-osmosis", "setting": "granuloma", "result": "anti-osmosis"}]}
{"compound": "chloretic acid", "values": [{"measurement": "LD50", "setting": "small rats [9]; [14]", "result": 1.52, "unit": "g/kg"}]}
{"compound": "deoxy-chloretic acid", "values": [{"measurement": "LD50", "setting": "small rats [9]; [14]", "result": 1.06, "unit": "g/kg"}, {"measurement": "LD50", "setting": "small rats [9]; intravenous", "result": 0.15, "unit": "g/kg"}, {"measurement": "effect on bile duct / excretion of bile", "setting": "[13]", "result": "can relax the dilators of the bile duct"}]}
